{"source": "patent US20060217305A1", "about": "“Induction of tumor cell senescence by retinoid receptor agonists and antagonists” (Ordway Research Institute, Inc., priority 2005, published 2006)", "tested_on": "DR5 RARE-containing promoter in MCF-7 cells", "test": "DR5-luciferase transient transfection assay (RARE-dependent transcription)", "format": "cell-based, human", "conditions": "100 nM, 24 hrs", "procedure": "The assays were carried out in triplicate. RA is all-trans retinoic acid. LGD1550 is a pan-RAR agonist. LG100815 is a pan-RAR antagonist.\nTo confirm the ability of LG100815 to antagonize RARE-dependent induction of transcription analysis of firefly luciferase expression from a RARE-containing artificial promoter DR5 (Stratagene, catalog number 240119) was performed. Cells were plated to the density of 3×10^5 in P60 24 hrs before transient transfection. DR5 reporter plasmid (4 μg) was mixed with the SV40-driven-Renilla luciferase control plasmid (0.04 μg) and transfected using Lipofectamine Plus (Life Technologies/Invitrogen, Carlsbad, Calif.) as described by the manufacturer. 3 hrs after transfection, cells were rinsed three times with PBS, trypsinized and replated in a 12-well plate to the density of 5×10^4 cells per well. Retinoid agonists and antagonists were added 48 hrs later, and the luciferase assay was performed after another 24 hrs."}
{"smiles": "CC(/C=C/C=C(\\C)c1cc(C(C)(C)C)cc(C(C)(C)C)c1)=C\\C(=O)O", "note": "[LGD1550]", "values": [{"measurement": "induction of luciferase expression from DR5 RARE-containing promoter", "value": "approximately 50 fold"}]}
